# From patent US8268786B2, “Anti-cancer tocotrienol analogues and associated methods” (First Tech International Limited, priority 2009, dated 2012)
# Where two headings read alike, the source gives them in different places.
# Assays:
# [1] = test system: ER-positive human breast cancer cells MCF7; assay: MTT antiproliferative assay, MCF7 cells; type: cell-based; conditions: for potency relative to parent natural tocotrienol / antiproliferative activity (in words): MCF7; for potency relative to parent natural tocotrienol: 4 and 10 versus Compound 1, 8 versus Compound 2
# Method: (§1) For each of the assays performed the compounds were dissolved in aqueous culture media by binding the compounds with bovine serum albumin (BSA).
# (§2) An amount of each compound appropriate for the desired final compound concentration was placed in a 1.5 mL screw top glass vial and dissolved in 100 μL of 100% ethanol. Once dissolved, this ethanol/compound solution was added to a small volume of sterile 10% BSA in water and incubated overnight at 37° C. […] Ethanol was added to all treatment media such that the final ethanol concentration was the same in all treatment groups within a given experiment and was always less than 0.1%. Although the examples provided have been described in conjunction with specified amounts of ethanol and other compounds it should be understood that the invention is applicable to embodiments not having those limited concentration.
# (§3) The cell growth of MCF7 (Example 24) and MDA-MB-231 (Example 25) cell lines was measured using the MTT assay procedures described above and an MTT assay kit (TACS™, Trevogen®, Inc., Gaithersburg, Md.). After passing the cells for 3-4 times, growing cells were incubated in a 96-well plate at a density of 8×10^3 cells per well, and allowed to attach for 24 hours. Complete growth medium was then replaced with 100 μL of RPMI serum free medium (GIBCO-Invitrogen, NY) containing various doses (20, 10, 5, 2 μM) of the tested compound and the culture continued at 37° C. under 5% CO2. After 96 hours, the incubated cells were treated with MTT solution (10 μL/well) at 37° C. for 4 hours. The color reaction was stopped by the addition of solubilization/stop solution (100 μL/well). The cells continued to be incubated at 37° C. to completely dissolve the formazan product. Absorbance of the samples was determined at 570 nm with an ELISA plate reader (BioTek, VT). Absorbance readings were converted to estimated cell numbers based on a standard curve prepared by plating various concentration of cells, as determined by hemocytometer, and measuring the absorbance of those cells at the start of each experiment. The IC50 value of each compound was calculated using nonlinear regression (curve fit) of log concentration versus the number of cells/well implemented using GraphPad Prism 5.0 program. The procedure was identical for both human breast cancer cell lines MCF7 and MDA-MB-231.
# [2] = test system: ER-negative human breast cancer cells MDA-MB-231; assay: MTT antiproliferative assay, MDA-MB-231 cells; type: cell-based; conditions: for antiproliferative activity (in words): MDA-MB-231
# Method: as §1, §2, §3
# [3] = test system: highly metastatic breast cancer cell line MDA-MB-231; assay: BME Cell Invasion Assay (Boyden chamber, calcein-AM); type: cell-based, human; conditions: for anti-invasive activity (in words): MDA-MB-231, 5 μM
# Method: Anti-Invasion Assays were performed to measure the anti-invasive properties of Compounds 1-21 using a 96 well basement membrane extract “BME” Cell Invasion Assay (Cultrex®, Trevogen, Catalog# 3455-096-K) with the highly metastatic breast cancer cell line MDA-MB-231. This assay employs a simplified Boyden Chamber design with a polyethylene terephthalate membrane (8 μm). Detection of cell invasion is quantified using calcein-AM. Cells internalize calcein-AM and intracellular esterases cleave the acetomethylester moiety to generate free calcein. Free calcein fluoresces brightly, and this fluorescence may be used to quantify the number of cells that have invaded across BME. (See Tamilarasan and Borghesani, referenced above)
# About […] of basement membrane extract (BME, 1×) coat was added per well. After overnight incubation at 37° C. in a 5% CO2 incubator, 50,000/50 μL of MDA-MB-231 cells in serum free RPMI medium were added to the top chamber of each well, which contained the tested compound at a treatment concentration of 5 μM. About 150 μL of RPMI medium was added to the lower chamber, which contained 10% fetal bovine serum, penicillin/streptomycin, and fibronectin (1 μL/mL) and N-formyl-met-leu-phe (10 nM) as chemoattractants. Cells were allowed to migrate to the lower chamber at 37° C. in a CO2 incubator. After 24 h, the top and bottom chambers were aspirated and washed with a washing buffer solution. About 100 μL of cell dissociation solution/Calcein-AM solution was added to the bottom chamber and incubated for 1 hour at 37° C. in a CO2 incubator. The cells internalized calcein-AM, and the intracellular esterases cleaved the acetomethylester (AM) moiety to generate free calcein. Fluorescence of the samples was determined at 485 nm excitation; 520 nm emissions were measured using a plate reader (BioTek, VT). The numbers of cells that invaded through the BME coat were calculated using a standard curve.
# Differences among the various treatment groups were determined by analysis of variance (ANOVA) followed by Dunnett's t-test. Differences were considered to be statistically significant at a value of <0.05, as compared to vehicle treated controls.
# [4] = 96 hours, serum free medium, calculated by nonlinear regression, read-out: MCF7 IC50
# [5] = 96 hours, serum free medium, calculated by nonlinear regression, read-out: MDA-MB-231 IC50
# [6] = Homo sapiens, MCF7, 96 h, read-out: MCF7 IC50 μM
# [7] = Homo sapiens, MDA-MB-231, 96 h, read-out: MDA-MB-231 IC50 μM
SMILES,"IC50 [1, 4]","IC50 [2, 5]","IC50 [1, 6]","IC50 [2, 7]",further results
"CC(C)=CCC/C(C)=C/CC/C(C)=C/CC[C@]1(C)CCc2c(C)c(O)c(C)c(C)c2O1 [Compound 1, α-tocotrienol, reference compound]",> 20 µM,> 10 µM,–,–,–
"CC(C)=CCC/C(C)=C/CC/C(C)=C/CC[C@]1(C)CCc2cc(O)c(C)c(C)c2O1 [Compound 2, γ-tocotrienol, reference compound]",11.4 µM,> 10 µM,–,–,–
"CC(C)=CCC/C(C)=C/CC/C(C)=C/CC[C@]1(C)CCc2cc(O)cc(C)c2O1 [Compound 3, δ-tocotrienol, reference compound]",15.5 µM,> 10 µM,–,–,–
"CC(C)=CCC/C(C)=C/CC/C(C)=C/CCC1(C)CCc2c(C)c(OC(=O)NS(=O)(=O)c3ccccc3)c(C)c(C)c2O1 (centres unmarked) [Compound 4, 2,5,7,8-tetramethyl-2-((3E,7E)-4,8,12-trimethyltrideca-3,7,11-trienyl)chroman-6-ylphenylsulfonylcarbamate]",4.5 µM,> 10 µM,–,–,potency relative to parent natural tocotrienol [1]: 8 fold
"CC(C)=CCC/C(C)=C/CC/C(C)=C/CCC1(C)CCc2cc(OC(=O)NS(=O)(=O)c3ccccc3)c(C)c(C)c2O1 (centres unmarked) [Compound 5, 2,7,8-trimethyl-2-((3E,7E)-4,8,12-trimethyltrideca-3,7,11-trienyl)chroman-6-ylphenylsulfonylcarbamate]",> 10 µM,> 10 µM,–,–,–
"CC(C)=CCC/C(C)=C/CC/C(C)=C/CCC1(C)CCc2cc(OC(=O)NS(=O)(=O)c3ccccc3)cc(C)c2O1 (centres unmarked) [Compound 6, 2,8-dimethyl-2-((3E,7E)-4,8,12-trimethyltrideca-3,7,11-trienyl)chroman-6-ylphenylsulfonylcarbamate]",6.1 µM,> 10 µM,–,–,antiproliferative activity (in words) [1]: activities greater than the natural tocotrienols from which they were derived
"CC(C)=CCC/C(C)=C/CC/C(C)=C/CC[C@]1(C)CCc2c(C)c(OC(=O)NS(=O)(=O)c3ccc(C)cc3)c(C)c(C)c2O1 [Compound 7, (R)-2,5,7,8-tetramethyl-2-((3E,7E)-4,8,12-trimethyltrideca-3,7,11-trienyl)chroman-6-yl tosylcarbamate]",–,–,6.1 µM,> 10 µM,antiproliferative activity (in words) [1]: activities greater than the natural tocotrienols from which they were derived
"CC(C)=CCC/C(C)=C/CC/C(C)=C/CC[C@]1(C)CCc2c(C)c(OC(=O)NS(=O)(=O)c3ccc(Cl)cc3)c(C)c(C)c2O1 [Compound 10, (R)-2,5,7,8-tetramethyl-2-((3E,7E)-4,8,12-trimethyltrideca-3,7,11-trienyl)chroman-6-yl 4-chlorophenylsulfonylcarbamate]",–,–,2.4 µM,> 10 µM,potency relative to parent natural tocotrienol [1]: 8 fold
"CC(C)=CCC/C(C)=C/CC/C(C)=C/CC[C@]1(C)CCc2cc(OC(=O)NS(=O)(=O)c3ccc(Cl)cc3)c(C)c(C)c2O1 [Compound 11, (R)-2,7,8-trimethyl-2-((3E,7E)-4,8,12-trimethyltrideca-3,7,11-trienyl)chroman-6-yl 4-chlorophenylsulfonylcarbamate]",–,–,> 10 µM,> 10 µM,–
"CC(C)=CCC/C(C)=C/CC/C(C)=C/CC[C@]1(C)CCc2cc(OC(=O)NS(=O)(=O)c3ccc(Cl)cc3)cc(C)c2O1 [Compound 12, (R)-2,8-dimethyl-2-((3E,7E)-4,8,12-trimethyltrideca-3,7,11-trienyl)chroman-6-yl 4-chlorophenylsulfonylcarbamate]",–,–,> 10 µM,> 10 µM,–
"CC(C)=CCC/C(C)=C/CC/C(C)=C/CC[C@]1(C)CCc2c(C)c(OC(=O)Nc3ccccc3)c(C)c(C)c2O1 [Compound 13, (R)-2,5,7,8-tetramethyl-2-((3E,7E)-4,8,12-trimethyltrideca-3,7,11-trienyl)chroman-6-yl phenylcarbamate]",–,–,> 20 µM,> 10 µM,antiproliferative activity (in words) [2]: improved activities; anti-invasive activity (in words) [3]: more active than their natural tocotrienol parent compounds
"CC(C)=CCC/C(C)=C/CC/C(C)=C/CC[C@]1(C)CCc2cc(OC(=O)Nc3ccccc3)c(C)c(C)c2O1 [Compound 14, (R)-2,7,8-trimethyl-2-((3E,7E)-4,8,12-trimethyltrideca-3,7,11-trienyl)chroman-6-yl phenylcarbamate]",–,–,> 10 µM,> 10 µM,–
"CC(C)=CCC/C(C)=C/CC/C(C)=C/CC[C@]1(C)CCc2cc(OC(=O)Nc3ccccc3)cc(C)c2O1 [Compound 15, (R)-2,8-dimethyl-2-((3E,7E)-4,8,12-trimethyltrideca-3,7,11-trienyl)chroman-6-yl phenylcarbamate]",–,–,> 10 µM,> 10 µM,–
"CC(C)=CCC/C(C)=C/CC/C(C)=C/CC[C@]1(C)CCc2c(C)c(OC(=O)NCc3ccccc3)c(C)c(C)c2O1 [Compound 16, (R)-2,5,7,8-tetramethyl-2-((3E,7E)-4,8,12-trimethyltrideca-3,7,11-trienyl)chroman-6-yl benzylcarbamate]",–,–,> 20 µM,7.2 µM,"antiproliferative activity (in words) [2]: improved activities; MDA-MB-231 cells invasion ([3]; 5 μM, 24 h): 8%; anti-invasive activity (in words) [3]: more active than their natural tocotrienol parent compounds"
"CC(C)=CCC/C(C)=C/CC/C(C)=C/CC[C@]1(C)CCc2cc(OC(=O)NCc3ccccc3)c(C)c(C)c2O1 [Compound 17, (R)-2,7,8-trimethyl-2-((3E,7E)-4,8,12-trimethyltrideca-3,7,11-trienyl)chroman-6-yl benzylcarbamate]",–,–,> 10 µM,> 10 µM,antiproliferative activity (in words) [2]: improved activities; anti-invasive activity (in words) [3]: more active than their natural tocotrienol parent compounds
"CC(C)=CCC/C(C)=C/CC/C(C)=C/CC[C@]1(C)CCc2cc(OC(=O)NCc3ccccc3)cc(C)c2O1 [Compound 18, (R)-2,8-dimethyl-2-((3E,7E) 4,8,12-trimethyltrideca-3,7,11-trienyl)chroman-6-yl benzylcarbamate]",–,–,> 10 µM,> 10 µM,–
"CC(C)=CCC/C(C)=C/CC/C(C)=C/CC[C@]1(C)CCc2c(C)c(OC(=O)NC(=O)c3ccccc3)c(C)c(C)c2O1 [Compound 19, (R)-2,5,7,8-tetramethyl-2-((3E,7E)-4,8,12-trimethyltrideca-3,7,11-trienyl)chroman-6-yl benzoylcarbamate]",–,–,> 20 µM,> 10 µM,–
"CC(C)=CCC/C(C)=C/CC/C(C)=C/CC[C@]1(C)CCc2cc(OC(=O)NC(=O)c3ccccc3)c(C)c(C)c2O1 [Compound 20, (R)-2,7,8-trimethyl-2-((3E,7E)-4,8,12-trimethyltrideca-3,7,11-trienyl)chroman-6-yl benzoylcarbamate]",–,–,> 10 µM,–,–
"CC(C)=CCC/C(C)=C/CC/C(C)=C/CC[C@]1(C)CCc2cc(OC(=O)NC(=O)c3ccccc3)cc(C)c2O1 [Compound 21, (R)-2,8-dimethyl-2-((3E,7E)-4,8,12-trimethyltrideca-3,7,11-trienyl)chroman-6-yl benzoylcarbamate]",–,–,5.6 µM,–,–
